Assay results from ChEMBL document CHEMBL1201862, “PubChem BioAssay data set” (2004).
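These data come from cells grown in 96-well plates and exposed to compound for 48 hours at five concentrations. At the GI50, growth is halved.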 The source made the active and inactive calls. No stated cut-off is given here; in the data, active = GI50 up to about 1.1 µM and inactive = higher.

Experiments:
Experiment in all cases: growth of human tumour cells (NCI), 48 h
A549 = tested on: A549
COLO 205 = tested on: COLO 205
HOP-92 = tested on: HOP-92
HT-29 = tested on: HT-29
Hs-578T = tested on: Hs-578T
KM12 = tested on: KM12
LOX IMVI = tested on: LOX IMVI
MOLT-4 = tested on: MOLT-4
NCI-H226 = tested on: NCI-H226
OVCAR-4 = tested on: OVCAR-4
RXF 393 = tested on: RXF 393
SF-295 = tested on: SF-295
SF-539 = tested on: SF-539
SK-MEL-28 = tested on: SK-MEL-28
SNB-75 = tested on: SNB-75
SW-620 = tested on: SW-620
T47D = tested on: T47D
TK-10 = tested on: TK-10
A498 = tested on: A498
UACC-62 = tested on: UACC-62

Structure (SMILES)	GI50 (A549)	GI50 (COLO 205)	GI50 (HOP-92)	GI50 (HT-29)	GI50 (Hs-578T)	GI50 (KM12)	GI50 (LOX IMVI)	GI50 (MOLT-4)	GI50 (NCI-H226)	GI50 (OVCAR-4)	GI50 (RXF 393)	GI50 (SF-295)	GI50 (SF-539)	GI50 (SK-MEL-28)	GI50 (SNB-75)	GI50 (SW-620)	GI50 (T47D)	GI50 (TK-10)	GI50 (A498)	GI50 (UACC-62)
COc1ccc(C2=NN(C(=O)c3cccnc3)C(O)(c3cc(F)c(Cl)cc3Cl)C2)cc1OC (stereo unspecified)	20.4 µM (inactive)	12.3 µM (inactive)	14.1 µM (inactive)	12.3 µM (inactive)	19.4 µM (inactive)	19.1 µM (inactive)	13.9 µM (inactive)	8.97 µM (inactive)	12.8 µM (inactive)	15.6 µM (inactive)	15.5 µM (inactive)	15.5 µM (inactive)	16.1 µM (inactive)	19.5 µM (inactive)	23.5 µM (inactive)	17.9 µM (inactive)	24 µM (inactive)	30.4 µM (inactive)	–	–
CCN1CCN(c2nc3ccccc3nc2C(=O)c2ccc(OC)c(OC)c2)CC1	13.6 µM (inactive)	1.5 µM (inactive)	7.48 µM (inactive)	12.6 µM (inactive)	–	15.4 µM (inactive)	12.7 µM (inactive)	5.16 µM (inactive)	22.3 µM (inactive)	10 µM (inactive)	12.2 µM (inactive)	11.9 µM (inactive)	1.73 µM (inactive)	13.5 µM (inactive)	12.9 µM (inactive)	15.7 µM (inactive)	> 100 µM (inactive)	22.4 µM (inactive)	27.7 µM (inactive)	> 100 µM (inactive)
CC(=O)On1c(-c2ccccc2-c2nc3ccccc3n2OC(C)=O)nc2ccccc21	41.3 µM (inactive)	16.7 µM (inactive)	–	–	37.8 µM (inactive)	22.5 µM (inactive)	18.5 µM (inactive)	11.3 µM (inactive)	25.9 µM (inactive)	–	–	44.7 µM (inactive)	42.7 µM (inactive)	29.3 µM (inactive)	35.2 µM (inactive)	34.4 µM (inactive)	17.7 µM (inactive)	68.1 µM (inactive)	–	21 µM (inactive)
C1=CN2C[n+]3ccc4ccccc4c3N=C2c2ccccc21	1.75 µM (inactive)	1.23 µM (inactive)	2.04 µM (inactive)	2.45 µM (inactive)	3.92 µM (inactive)	1.85 µM (inactive)	–	1.91 µM (inactive)	–	–	–	2.69 µM (inactive)	3.25 µM (inactive)	–	–	4.02 µM (inactive)	0.671 µM (active)	15.3 µM (inactive)	–	1.93 µM (inactive)
COC(=O)/C=C/c1cnc2c(c1)oc(=O)n2CCc1ccccn1	> 100 µM (inactive)	> 100 µM (inactive)	–	> 100 µM (inactive)	> 100 µM (inactive)	> 100 µM (inactive)	> 100 µM (inactive)	> 100 µM (inactive)	17.2 µM (inactive)	> 100 µM (inactive)	–	> 100 µM (inactive)	> 100 µM (inactive)	> 100 µM (inactive)	> 100 µM (inactive)	92 µM (inactive)	50.6 µM (inactive)	> 100 µM (inactive)	0.773 µM (active)	> 100 µM (inactive)
NC(=O)Cc1nc2c(N)ncnc2n1C1OC(CO)C(O)C1O (stereo unspecified)	> 100 µM (inactive)	> 100 µM (inactive)	> 100 µM (inactive)	> 100 µM (inactive)	> 100 µM (inactive)	> 100 µM (inactive)	> 100 µM (inactive)	> 100 µM (inactive)	> 100 µM (inactive)	> 100 µM (inactive)	–	> 100 µM (inactive)	> 100 µM (inactive)	> 100 µM (inactive)	–	> 100 µM (inactive)	> 100 µM (inactive)	> 100 µM (inactive)	> 100 µM (inactive)	> 100 µM (inactive)
Cc1ccc(SCC(CF)OC(C)n2cnc3c(O)nc(N)nc32)cc1 (stereo unspecified)	> 100 µM (inactive)	> 100 µM (inactive)	> 100 µM (inactive)	> 100 µM (inactive)	> 100 µM (inactive)	> 100 µM (inactive)	> 100 µM (inactive)	50.5 µM (inactive)	> 100 µM (inactive)	> 100 µM (inactive)	–	> 100 µM (inactive)	> 100 µM (inactive)	> 100 µM (inactive)	> 100 µM (inactive)	> 100 µM (inactive)	49.1 µM (inactive)	> 100 µM (inactive)	–	> 100 µM (inactive)
C[Si](C)(OCCS(=O)(=O)O)C1S(=O)(=O)OCCOS1(=O)=O	–	> 100 µM (inactive)	23.8 µM (inactive)	> 100 µM (inactive)	–	91.6 µM (inactive)	21.2 µM (inactive)	30.3 µM (inactive)	64.9 µM (inactive)	> 100 µM (inactive)	21.7 µM (inactive)	4.86 µM (inactive)	23.9 µM (inactive)	> 100 µM (inactive)	20.5 µM (inactive)	0.495 µM (active)	36.6 µM (inactive)	> 100 µM (inactive)	> 100 µM (inactive)	13.7 µM (inactive)
O=C(/C=C/c1cccs1)c1ccc(C(=O)/C=C/c2cccs2)cc1	> 100 µM (inactive)	> 100 µM (inactive)	> 100 µM (inactive)	> 100 µM (inactive)	> 100 µM (inactive)	> 100 µM (inactive)	–	> 100 µM (inactive)	> 100 µM (inactive)	> 100 µM (inactive)	–	> 100 µM (inactive)	> 100 µM (inactive)	> 100 µM (inactive)	> 100 µM (inactive)	> 100 µM (inactive)	> 100 µM (inactive)	> 100 µM (inactive)	> 100 µM (inactive)	> 100 µM (inactive)
COC(=O)CCc1ccc2c(c1)[C@H](C(=O)OC)[C@@H](c1ccc(O)cc1)O2	> 100 µM (inactive)	> 100 µM (inactive)	> 100 µM (inactive)	> 100 µM (inactive)	> 100 µM (inactive)	> 100 µM (inactive)	> 100 µM (inactive)	35.6 µM (inactive)	25.5 µM (inactive)	> 100 µM (inactive)	–	> 100 µM (inactive)	25.6 µM (inactive)	> 100 µM (inactive)	–	> 100 µM (inactive)	78.2 µM (inactive)	> 100 µM (inactive)	> 100 µM (inactive)	> 100 µM (inactive)
CC(C)C1=CC23CCC4C(C)(C(=O)O)CCCC4(C)C2CC1C1C(=O)N(CCCCCCN2C(=O)C4C5CC6C7(C)CCCC(C)(C(=O)O)C7CCC6(C=C5C(C)C)C4C2=O)C(=O)C13 (stereo unspecified)	9.31 µM (inactive)	> 10 µM (inactive)	21.7 µM (inactive)	3.84 µM (inactive)	12.3 µM (inactive)	11.4 µM (inactive)	–	6.17 µM (inactive)	> 10 µM (inactive)	15.7 µM (inactive)	14.2 µM (inactive)	–	> 10 µM (inactive)	11.3 µM (inactive)	–	15.9 µM (inactive)	21.1 µM (inactive)	16.2 µM (inactive)	11.6 µM (inactive)	37.8 µM (inactive)
OC1=C(c2ccccc2)C2=NCCN2c2ccccc21	50.6 µM (inactive)	47 µM (inactive)	> 100 µM (inactive)	55.2 µM (inactive)	28.1 µM (inactive)	31.8 µM (inactive)	31.7 µM (inactive)	46.8 µM (inactive)	48.9 µM (inactive)	> 100 µM (inactive)	–	46.1 µM (inactive)	43.8 µM (inactive)	79.6 µM (inactive)	23.1 µM (inactive)	78.7 µM (inactive)	> 100 µM (inactive)	94 µM (inactive)	98.4 µM (inactive)	29.2 µM (inactive)
CC1(C)Oc2ccc3c(=O)cc(-c4ccc(F)cc4)oc3c2C1C(=O)O (stereo unspecified)	> 100 µM (inactive)	> 100 µM (inactive)	–	> 100 µM (inactive)	> 100 µM (inactive)	–	–	> 100 µM (inactive)	> 100 µM (inactive)	–	> 100 µM (inactive)	> 100 µM (inactive)	> 100 µM (inactive)	–	–	–	> 100 µM (inactive)	> 100 µM (inactive)	> 100 µM (inactive)	> 100 µM (inactive)
CCN1CCCCCCCCCC(=N/O)/C(=N\O)C1	> 100 µM (inactive)	–	> 100 µM (inactive)	> 100 µM (inactive)	–	> 100 µM (inactive)	> 100 µM (inactive)	> 100 µM (inactive)	> 100 µM (inactive)	–	> 100 µM (inactive)	> 100 µM (inactive)	> 100 µM (inactive)	> 100 µM (inactive)	> 100 µM (inactive)	> 100 µM (inactive)	> 100 µM (inactive)	> 100 µM (inactive)	> 100 µM (inactive)	–
CC1(C)OCC(C2OC3OC(C)(C)OC3C2c2ccccc2)O1 (stereo unspecified)	42.8 µM (inactive)	21.2 µM (inactive)	17.6 µM (inactive)	39.6 µM (inactive)	20.7 µM (inactive)	82.4 µM (inactive)	32.1 µM (inactive)	22.4 µM (inactive)	22.4 µM (inactive)	41.4 µM (inactive)	48.3 µM (inactive)	> 100 µM (inactive)	37.5 µM (inactive)	41.5 µM (inactive)	50.6 µM (inactive)	32.8 µM (inactive)	38.2 µM (inactive)	32.1 µM (inactive)	–	27 µM (inactive)
Clc1ccc(C(Cc2ccccc2)c2c(Cl)nc(N3CCNCC3)nc2Cl)cc1 (stereo unspecified)	16.1 µM (inactive)	1.73 µM (inactive)	8.57 µM (inactive)	2.64 µM (inactive)	14.8 µM (inactive)	7.89 µM (inactive)	3.46 µM (inactive)	4.01 µM (inactive)	22.8 µM (inactive)	18.6 µM (inactive)	–	19 µM (inactive)	14.5 µM (inactive)	13.7 µM (inactive)	14.1 µM (inactive)	14.5 µM (inactive)	12.8 µM (inactive)	17.5 µM (inactive)	11.9 µM (inactive)	21 µM (inactive)
